Assay results taken from the supplement of paper PMC13207355.

Tests used:
Conditions in all cases: exposure time: 72 h
E13 [1] = patient-derived glioblastoma stem cells of classical subtype; assay: surviving fraction (nuclei count normalised to DMSO); higher = more cells surviving (less toxic)
E21 [2] = patient-derived glioblastoma stem cells of mesenchymal subtype; assay: as above
E28 [3] = patient-derived glioblastoma stem cells of classical subtype; assay: as above
E31 [4] = patient-derived glioblastoma stem cells of proneural subtype; assay: as above
E34 [5] = patient-derived glioblastoma stem cells of proneural subtype; assay: as above
E57 [6] = patient-derived glioblastoma stem cells of mesenchymal subtype; assay: as above
FT3469 [7] = normal neural stem cell line; assay: as above
E13 [8] = assay: phenotypic distance (Euclidean, principal components) from DMSO controls (arbitrary units); higher = stronger morphological change
E21 [9] = assay: as above
E28 [10] = assay: as above
E31 [11] = assay: as above
E34 [12] = assay: as above
E57 [13] = assay: as above
FT3469 [14] = assay: as above
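For phenotypic distance (Euclidean, principal components) from DMSO controls in this document: cell Painting imaging in 384-well plates, CellProfiler features reduced to at least 20 principal components, Euclidean distance versus same-plate DMSO vehicle wells (0.1% v/v), median over six images per well.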
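For surviving fraction (nuclei count normalised to DMSO) in this document: nuclei counted by high-content imaging of Hoechst-stained cells in laminin-coated 384-well plates, relative to 0.1% DMSO vehicle wells, with staurosporine as cell-death control.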

COC(=O)C1=C(C)NC(C)=C(C(=O)OCC(C)C)C1c1ccccc1[N+](=O)[O-] (stereo unspecified) [Nisoldipine]
Conditions	phenotypic distance	surviving fraction
E13 [1], 4.1 nM	–	0.894
E13 [1], 12.3 nM	–	1.08
E13 [1], 37 nM	–	0.924
E13 [1], 111.1 nM	–	0.974
E13 [1], 333.3 nM	–	0.947
E13 [1], 1000 nM	–	0.946
E13 [1], 3000 nM	–	0.883
E13 [8], 4.1 nM	0.597	–
E13 [8], 12.3 nM	0.435	–
E13 [8], 37 nM	0.491	–
E13 [8], 111.1 nM	3.02	–
E13 [8], 333.3 nM	1.31	–
E13 [8], 1000 nM	1.21	–
E13 [8], 3000 nM	1.2	–
E21 [2], 4.1 nM	–	0.82
E21 [2], 12.3 nM	–	0.905
E21 [2], 37 nM	–	0.945
E21 [2], 111.1 nM	–	0.892
E21 [2], 333.3 nM	–	0.945
E21 [2], 1000 nM	–	0.942
E21 [2], 3000 nM	–	0.857
E21 [9], 4.1 nM	0.832	–
E21 [9], 12.3 nM	0.907	–
E21 [9], 37 nM	1.12	–
E21 [9], 111.1 nM	1.2	–
E21 [9], 333.3 nM	0.961	–
E21 [9], 1000 nM	0.669	–
E21 [9], 3000 nM	1.16	–
E28 [3], 4.1 nM	–	0.944
E28 [3], 12.3 nM	–	0.957
E28 [3], 37 nM	–	0.921
E28 [3], 111.1 nM	–	0.86
E28 [3], 333.3 nM	–	0.843
E28 [3], 1000 nM	–	0.972
E28 [3], 3000 nM	–	0.9
E28 [10], 4.1 nM	0.647	–
E28 [10], 12.3 nM	0.706	–
E28 [10], 37 nM	1.08	–
E28 [10], 111.1 nM	0.981	–
E28 [10], 333.3 nM	0.997	–
E28 [10], 1000 nM	0.908	–
E28 [10], 3000 nM	0.792	–
E31 [4], 4.1 nM	–	0.972
E31 [4], 12.3 nM	–	0.914
E31 [4], 37 nM	–	0.886
E31 [4], 111.1 nM	–	0.892
E31 [4], 333.3 nM	–	0.949
E31 [4], 1000 nM	–	0.996
E31 [4], 3000 nM	–	0.938
E31 [11], 4.1 nM	0.922	–
E31 [11], 12.3 nM	1.01	–
E31 [11], 37 nM	1.26	–
E31 [11], 111.1 nM	0.944	–
E31 [11], 333.3 nM	0.976	–
E31 [11], 1000 nM	1.03	–
E31 [11], 3000 nM	1.31	–
E34 [5], 4.1 nM	–	0.949
E34 [5], 12.3 nM	–	0.965
E34 [5], 37 nM	–	1.04
E34 [5], 111.1 nM	–	0.931
E34 [5], 333.3 nM	–	0.853
E34 [5], 1000 nM	–	0.959
E34 [5], 3000 nM	–	0.955
E34 [12], 4.1 nM	2	–
E34 [12], 12.3 nM	0.511	–
E34 [12], 37 nM	0.835	–
E34 [12], 111.1 nM	0.542	–
E34 [12], 333.3 nM	0.889	–
E34 [12], 1000 nM	0.614	–
E34 [12], 3000 nM	1.06	–
E57 [6], 4.1 nM	–	0.904
E57 [6], 12.3 nM	–	0.985
E57 [6], 37 nM	–	0.923
E57 [6], 111.1 nM	–	0.969
E57 [6], 333.3 nM	–	0.929
E57 [6], 1000 nM	–	1.07
E57 [6], 3000 nM	–	0.96
E57 [13], 4.1 nM	0.873	–
E57 [13], 12.3 nM	0.508	–
E57 [13], 37 nM	0.494	–
E57 [13], 111.1 nM	0.633	–
E57 [13], 333.3 nM	0.615	–
E57 [13], 1000 nM	0.552	–
E57 [13], 3000 nM	0.478	–
FT3469 [7], 4.1 nM	–	0.965
FT3469 [7], 12.3 nM	–	0.938
FT3469 [7], 37 nM	–	1.04
FT3469 [7], 111.1 nM	–	0.966
FT3469 [7], 333.3 nM	–	0.965
FT3469 [7], 1000 nM	–	0.942
FT3469 [7], 3000 nM	–	0.896
FT3469 [14], 4.1 nM	0.816	–
FT3469 [14], 12.3 nM	1.12	–
FT3469 [14], 37 nM	0.632	–
FT3469 [14], 111.1 nM	0.827	–
FT3469 [14], 333.3 nM	1.05	–
FT3469 [14], 1000 nM	1.4	–
FT3469 [14], 3000 nM	0.987	–

CC1(C)S[C@@H]2[C@H](NC(=O)Cc3ccccc3)C(=O)N2[C@H]1C(=O)O [Benzylpenicillin sodium]
Conditions	phenotypic distance	surviving fraction
E13 [1], 4.1 nM	–	1.1
E13 [1], 12.3 nM	–	1.14
E13 [1], 37 nM	–	1.07
E13 [1], 111.1 nM	–	1.17
E13 [1], 333.3 nM	–	1.06
E13 [1], 1000 nM	–	1.06
E13 [1], 3000 nM	–	1.08
E13 [8], 4.1 nM	0.664	–
E13 [8], 12.3 nM	1.03	–
E13 [8], 37 nM	0.438	–
E13 [8], 111.1 nM	0.926	–
E13 [8], 333.3 nM	0.678	–
E13 [8], 1000 nM	1.04	–
E13 [8], 3000 nM	0.985	–
E21 [2], 4.1 nM	–	1.06
E21 [2], 12.3 nM	–	1.11
E21 [2], 37 nM	–	1.03
E21 [2], 111.1 nM	–	1.04
E21 [2], 333.3 nM	–	0.968
E21 [2], 1000 nM	–	1.14
E21 [2], 3000 nM	–	0.993
E21 [9], 4.1 nM	0.889	–
E21 [9], 12.3 nM	0.821	–
E21 [9], 37 nM	0.791	–
E21 [9], 111.1 nM	0.688	–
E21 [9], 333.3 nM	4.43	–
E21 [9], 1000 nM	1.31	–
E21 [9], 3000 nM	0.858	–
E28 [3], 4.1 nM	–	1.28
E28 [3], 12.3 nM	–	1.09
E28 [3], 37 nM	–	1.38
E28 [3], 111.1 nM	–	0.946
E28 [3], 333.3 nM	–	1.14
E28 [3], 1000 nM	–	1.12
E28 [3], 3000 nM	–	0.901
E28 [10], 4.1 nM	0.78	–
E28 [10], 12.3 nM	0.57	–
E28 [10], 37 nM	0.958	–
E28 [10], 111.1 nM	0.61	–
E28 [10], 333.3 nM	0.635	–
E28 [10], 1000 nM	0.605	–
E28 [10], 3000 nM	1.19	–
E31 [4], 4.1 nM	–	1.03
E31 [4], 12.3 nM	–	0.949
E31 [4], 37 nM	–	1.1
E31 [4], 111.1 nM	–	1.03
E31 [4], 333.3 nM	–	1.1
E31 [4], 1000 nM	–	0.947
E31 [4], 3000 nM	–	0.879
E31 [11], 4.1 nM	0.966	–
E31 [11], 12.3 nM	0.585	–
E31 [11], 37 nM	0.478	–
E31 [11], 111.1 nM	0.839	–
E31 [11], 333.3 nM	1.16	–
E31 [11], 1000 nM	0.685	–
E31 [11], 3000 nM	1.21	–
E34 [5], 4.1 nM	–	1.11
E34 [5], 12.3 nM	–	0.981
E34 [5], 37 nM	–	1.02
E34 [5], 111.1 nM	–	1.02
E34 [5], 333.3 nM	–	0.906
E34 [5], 1000 nM	–	0.865
E34 [5], 3000 nM	–	0.864
E34 [12], 4.1 nM	0.752	–
E34 [12], 12.3 nM	0.424	–
E34 [12], 37 nM	0.561	–
E34 [12], 111.1 nM	0.473	–
E34 [12], 333.3 nM	0.826	–
E34 [12], 1000 nM	0.717	–
E34 [12], 3000 nM	1.48	–
E57 [6], 4.1 nM	–	1.03
E57 [6], 12.3 nM	–	0.993
E57 [6], 37 nM	–	1
E57 [6], 111.1 nM	–	1.01
E57 [6], 333.3 nM	–	1.04
E57 [6], 1000 nM	–	0.87
E57 [6], 3000 nM	–	0.922
E57 [13], 4.1 nM	0.898	–
E57 [13], 12.3 nM	0.449	–
E57 [13], 37 nM	0.995	–
E57 [13], 111.1 nM	0.845	–
E57 [13], 333.3 nM	1.07	–
E57 [13], 1000 nM	0.999	–
E57 [13], 3000 nM	1.39	–
FT3469 [7], 4.1 nM	–	1.05
FT3469 [7], 12.3 nM	–	1.29
FT3469 [7], 37 nM	–	1.05
FT3469 [7], 111.1 nM	–	1.18
FT3469 [7], 333.3 nM	–	0.99
FT3469 [7], 1000 nM	–	1.27
FT3469 [7], 3000 nM	–	1.12
FT3469 [14], 4.1 nM	0.569	–
FT3469 [14], 12.3 nM	0.961	–
FT3469 [14], 37 nM	1.12	–
FT3469 [14], 111.1 nM	0.565	–
FT3469 [14], 333.3 nM	0.741	–
FT3469 [14], 1000 nM	0.951	–
FT3469 [14], 3000 nM	1.77	–
